We go through 3 compounds from ChEMBL document CHEMBL4190196, “Kohamamides A, B, and C, Cyclic Depsipeptides from an Okeania sp. Marine Cyanobacterium” (J Nat Prod, 2017).

Assay [1] relates to HL-60. The experiment in a line: Growth inhibition of human HL60 cells after 72 hrs by MTT assay. It counts as functional, cell-based. Conditions: HL-60, 72 h. For orientation: Formazan colour is commonly taken as a measure of viable cells.
In assay [2] the test system is HeLa. The experiment in a line: Growth inhibition of human HeLa cells after 72 hrs by MTT assay. Type of assay: functional, cell-based.

*1 amine or outer side, *2 acyl side, *3 side chain or, on linkers, in order; H or OH if unused. Where a SMILES comes first, the peptide text is derived from it. Bridges are numbered along the chain shown (N, C = ends). [ ]: non-standard residue; d: D form. X1 = C#CCCC[C@H](O[*:2])C(C)(C)C(=O)[*:1]; X2 = C=CCCC[C@H](O[*:2])C(C)(C)C(=O)[*:1]; X3 = CCCCC[C@H](O[*:2])C(C)(C)C(=O)[*:1]; Hmpa(2S,3S) = CC[C@H](C)[C@H](O)C(=O)O; NMeV = CN[C@H](C(=O)O)C(C)C

By IC50 is commonly meant the concentration that inhibits the measured activity by half. As to `C#CCCC[C@@H]1OC(=O)[C@H](C)NC(=O)[C@H](CC(C)C)NC(=O)[C@@H]2CCCN2C(=O)[C@H]([C@@H](C)CC)OC(=O)[C@H](C(C)C)N(C)C(=O)[C@H](C(C)C)NC(=O)C1(C)C` (V[NMeV][Hmpa(2S,3S)]PLA; linker N-C via X1), the IC50 in assay [1] is 19 µM; in assay [2] it was 29 µM.

For `C=CCCC[C@@H]1OC(=O)[C@H](C)NC(=O)[C@H](CC(C)C)NC(=O)[C@@H]2CCCN2C(=O)[C@H]([C@@H](C)CC)OC(=O)[C@H](C(C)C)N(C)C(=O)[C@H](C(C)C)NC(=O)C1(C)C` (V[NMeV][Hmpa(2S,3S)]PLA; linker N-C via X2), the IC50 in assay [1] stood at 6 µM; in assay [2] it was 23 µM.

As for `CCCCC[C@@H]1OC(=O)[C@H](C)NC(=O)[C@H](CC(C)C)NC(=O)[C@@H]2CCCN2C(=O)[C@H]([C@@H](C)CC)OC(=O)[C@H](C(C)C)N(C)C(=O)[C@H](C(C)C)NC(=O)C1(C)C` (V[NMeV][Hmpa(2S,3S)]PLA; linker N-C via X3), the IC50 came out at 11 µM in assay [1] and 18 µM in assay [2].
